# Data from patent US20080069899A1, “Pharmaceutical Compositions Comprising Beta-Carboline Derivatives and Use Thereof for the Treatment of Cancer” (priority 2004, published 2008).
# Several values for one entry are separate records, joined by “and”; a condition that tells them apart may be missing. Equal entries are not always repeated. Structures can show the parent of a compound that is named as a salt. Where two headings read alike, the source gives them in different places.
# Columns and labels:
# [1] = test system: HT29 human colon tumor cells; assay: in vivo antineoplastic activity, NOD-SCID mice xenografted with HT29 human tumour cells
# Method: (§1) The animal model chosen is that of severe combined immunodeficient (NOD-SCID) mice having received a xenograft of human tumor cells.
# (§2) Male and female NOD-SCID mice, more than 3 months old, were raised in an environment of strict sterility, in an insulator ventilated with filtered air and sterilized, at 22° C. and 40% humidity, with a day-12 h/night-12 h cycle. The cages, feeding bottles and the water were sterilized in an autoclave at 120° C. for 30 minutes and the food as well as the bedding were treated with γ-irradiation. All handling took place in aseptic conditions under a laminar flow hood.
# The mice were subjected to general anaesthesia by i.p. injection of 0.3 to 0.4 ml of hypnomidate at 2 mg/ml. 1×10^7 HT29 human colon tumor cells in suspension in 200 μl of PBS were then injected sub-cutaneously, into the backs of the mice. […]
# 50 mg of 5-fluorouracil (Sigma) were dissolved in 8 ml of water and the solution obtained was sterilized by filtration on a membrane with 0.22 μm porosity. […]
# [2] = Method: as §1, §2
# 150 mg of cyclophosphamide (Sigma) were dissolved in 8 ml of water and the solution obtained was sterilized by filtration on a membrane with 0.22 μm porosity.
# 50 mg of 5-fluorouracil (Sigma) were dissolved in 8 ml of water and the solution obtained was sterilized by filtration on a membrane with 0.22 μm porosity.
# 100 mg of dihydrated harmalacidine hydrochloride were dissolved in 8 ml of water and the solution obtained was sterilized by filtration on a membrane with 0.22 μm porosity. The mice received either 25, 50, or 100 mg/kg/day of harmalacidine alone, or a mixture of 25 or 50 mg/kg/day of harmalacidine+50 mg/kg/day of cyclophosphamide.
# [3] = test system: HBMEC (immortalized human bone marrow endothelial cell lines); assay: in vitro cytotoxicity test (neutral red, 96-well microplate); assay type: cell-based; settings: 96 h, incubation 4 days
# Method: (§3) The cytotoxic effects of the different alkaloid extracts of P. harmala were studied on several cell lines: • human leukemia cell lines: K562 and Jurkat (leukemia), U937 (myeloma), • human solid tumor cell lines: KB (epithelioma of the nasopharynx) and HT29 (colon), • immortalized human bone marrow endothelial cell lines: HBMEC.
# (§4) The cells are cultured in an oven under a 5% CO2 atmosphere and at 37° C., in RPMI 1640 medium for K562, Jurkat, U937 and HT29 and DMEM for KB, supplemented with 10% foetal calf serum, 0.01% penicillin-streptomycin and L-glutamine 2 mM and in EGM2 medium for the HBMEC cells.
# (§5) The cytotoxicity test is carried out in a 96-well microplate in the presence of the extract to be tested at varying concentrations of 40, 20, 10, 5, 1, 0.5 μg/ml and in the absence of product, after incubation for 4 days at 37° C. On the 3rd day, a solution of neutral red is added which is absorbed by living cells. The optical density (OD) of dye released by lyzed cells is measured at 540 nm by an Elisa plate reader. The toxicity (% inhibition of growth) is inversely proportional to the optical density.
# (§6) The percentage of inhibition is defined as being the difference between the OD without product and the OD in the presence of product compared to the OD without product.
# (§7) The concentration inhibiting 50% of cell growth is obtained from the curve representing the percentage of inhibition as a function of the logarithm of the concentration.
# Jurkat (leukemia) = assay: as above; assay type: cell-based; settings: Homo sapiens, 96 h, incubation 4 days
# Method: as §3, §4, §5, §6, §7
# K562 (leukemia) = assay: as above; assay type: cell-based; settings: Homo sapiens, incubation 4 days
# Method: as §3, §4, §5, §6, §7
# [4] = test system: KB (epithelioma of the nasopharynx); assay: as above; assay type: cell-based; settings: Homo sapiens, 96 h, incubation 4 days
# Method: as §3, §4, §5, §6, §7
# U937 (myeloma) = assay: as above; assay type: cell-based; settings: Homo sapiens, U-937, 96 h, incubation 4 days
# Method: as §3, §4, §5, §6, §7
# [5] = test system: malignant and endothelial cells tested; assay: summary of in vitro cytotoxicity over all lines tested; assay type: cell-based, human; settings: range over the cell lines, read-out: IC50 vis-à-vis malignant and endothelial cells tested
# Method: as §3, §4, §5, §6, §7
# To summarize, the IC50 vis-à-vis malignant and endothelial cells tested is the following: […]
molecule,measurement,setting,value
O=c1[nH]cc(F)c(=O)[nH]1 [5-fluorouracil],Average volume of the tumours of the treated mice compared to the average volume of the tumours of the non-treated mice (T/C) (%),"[1]; 5-fluorouracil 3 mg/kg/day alone per os, Day 15",43%
same,Average volume of the tumours of the treated mice compared to the average volume of the tumours of the non-treated mice (T/C) (%),"[1]; 5-fluorouracil 3 mg/kg/day alone per os, Day 30",56%
same,Average volume of the tumours of the treated mice compared to the average volume of the tumours of the non-treated mice (T/C) (%),"[1]; 5-fluorouracil 3 mg/kg/day alone per os, Day 40",66%
same,Average volume of the tumours of the treated mice compared to the average volume of the tumours of the non-treated mice (T/C) (%),"[1]; 5-fluorouracil 3 mg/kg/day alone per os, Day 50",61%
same,Average volume of the tumours of the treated mice compared to the average volume of the tumours of the non-treated mice (T/C) (%),"[1]; 5-fluorouracil 3 mg/kg/day alone per os, Day 60",86%
same,Average volume of the tumours of the treated mice compared to the average volume of the tumours of the non-treated mice (T/C) (%),"[1]; 5-fluorouracil 6 mg/kg/day alone per os, Day 15",37%
same,Average volume of the tumours of the treated mice compared to the average volume of the tumours of the non-treated mice (T/C) (%),"[1]; 5-fluorouracil 6 mg/kg/day alone per os, Day 30",53%
same,Average volume of the tumours of the treated mice compared to the average volume of the tumours of the non-treated mice (T/C) (%),"[1]; 5-fluorouracil 6 mg/kg/day alone per os, Day 40",60%
same,Average volume of the tumours of the treated mice compared to the average volume of the tumours of the non-treated mice (T/C) (%),"[1]; 5-fluorouracil 6 mg/kg/day alone per os, Day 50",64%
same,Average volume of the tumours of the treated mice compared to the average volume of the tumours of the non-treated mice (T/C) (%),"[1]; 5-fluorouracil 6 mg/kg/day alone per os, Day 60",70%
same,Average volume of the tumours of the treated mice compared to the average volume of the tumours of the non-treated mice (T/C) (%),"[1]; 5-fluorouracil 9 mg/kg/day alone per os, Day 15",41%
same,Average volume of the tumours of the treated mice compared to the average volume of the tumours of the non-treated mice (T/C) (%),"[1]; 5-fluorouracil 9 mg/kg/day alone per os, Day 30",41%
same,Average volume of the tumours of the treated mice compared to the average volume of the tumours of the non-treated mice (T/C) (%),"[1]; 5-fluorouracil 9 mg/kg/day alone per os, Day 40",59%
same,Average volume of the tumours of the treated mice compared to the average volume of the tumours of the non-treated mice (T/C) (%),"[1]; 5-fluorouracil 9 mg/kg/day alone per os, Day 50",52%
same,Average volume of the tumours of the treated mice compared to the average volume of the tumours of the non-treated mice (T/C) (%),"[1]; 5-fluorouracil 9 mg/kg/day alone per os, Day 60",59%
same,Average volume of the tumours of the treated mice compared to the average volume of the tumours of the non-treated mice (T/C) (%),"[1]; 5-fluorouracil 12 mg/kg/day alone per os, Day 15",73%
same,Average volume of the tumours of the treated mice compared to the average volume of the tumours of the non-treated mice (T/C) (%),"[1]; 5-fluorouracil 12 mg/kg/day alone per os, Day 30",66%
same,Average volume of the tumours of the treated mice compared to the average volume of the tumours of the non-treated mice (T/C) (%),"[1]; 5-fluorouracil 12 mg/kg/day alone per os, Day 40",54%
same,Average volume of the tumours of the treated mice compared to the average volume of the tumours of the non-treated mice (T/C) (%),"[1]; 5-fluorouracil 12 mg/kg/day alone per os, Day 50",47%
same,Average volume of the tumours of the treated mice compared to the average volume of the tumours of the non-treated mice (T/C) (%),"[1]; 5-fluorouracil 12 mg/kg/day alone per os, Day 60",59%
same,T/C,"[1]; 5-fluorouracil 24 mg/kg/d, alternating 6 days of treatment and 6 days of rest, until the 20th day of the treatment",17%
same,Average volume of the tumours of the treated mice compared to the average volume of the tumours of the non-treated mice (T/C) (%),"[1]; 5-fluorouracil 24 mg/kg/day alone, alternating 6 days of treatment and 6 days of rest, Day 15",17%
same,Average volume of the tumours of the treated mice compared to the average volume of the tumours of the non-treated mice (T/C) (%),"[1]; 5-fluorouracil 24 mg/kg/day alone, alternating 6 days of treatment and 6 days of rest, Day 30",54%
same,Average volume of the tumours of the treated mice compared to the average volume of the tumours of the non-treated mice (T/C) (%),"[1]; 5-fluorouracil 24 mg/kg/day alone, alternating 6 days of treatment and 6 days of rest, Day 40",54%
same,day of administration at which the dose becomes lethal,"[2]; both, NOD-SCID, mouse, in vivo",35 to 45 days
"CC[C@@]1(O)C(=O)OCc2c1cc1n(c2=O)Cc2cc3ccccc3nc2-1 [Camptothecin, reference compound]",IC50,[3],0.025 µg/mL and 70 nM
same,IC50,Jurkat (leukemia),0.003 µg/mL and 90 nM
same,IC50,K562 (leukemia); 96 h,0.014 µg/mL and 40 nM
same,IC50,[4],0.035 µg/mL and 100 nM
same,IC50,U937 (myeloma),0.023 µg/mL and 70 nM
"O=C1NCCc2c1[nH]c1cc(O)ccc21 [Demethyl-harmalacidine (D), demethyl harmalacidine]",IC50,[3],17 µg/mL and 84.1 µM
same,IC50,Jurkat (leukemia),8.5 µg/mL and 42 µM
same,IC50,"K562 (leukemia); K562, 96 h",20 µg/mL and 99 µM
same,IC50,[4],10 µg/mL and 49.5 µM
"COc1ccc2c(c1)[nH]c1c(C)nccc12 [Harmine•HCl•2H2O, dihydrated harmine hydrochloride]",IC50,[5]; hydrochloride,10.5 to 35 µM
"OC1CCN2Cc3ccccc3N=C12 (centres unmarked) [Peganine (B), Peganine]",IC50,Jurkat (leukemia),75 µg/mL and 399 µM
same,IC50,"K562 (leukemia); K562, 96 h",35 µg/mL and 186 µM
same,IC50,[4],> 50 µg/mL and > 266 µM
O=P1(N(CCCl)CCCl)NCCCO1 (centres unmarked) [cyclophosphamide],Average volume of the tumours of the treated mice compared to the average volume of the tumours of the non-treated mice (T/C) (%),"[1]; cyclophosphamide 50 mg/kg/day alone, Day 15",63%
same,Average volume of the tumours of the treated mice compared to the average volume of the tumours of the non-treated mice (T/C) (%),"[1]; cyclophosphamide 50 mg/kg/day alone, Day 30",42%
same,Average volume of the tumours of the treated mice compared to the average volume of the tumours of the non-treated mice (T/C) (%),"[1]; cyclophosphamide 50 mg/kg/day alone, Day 40",37%
same,Average volume of the tumours of the treated mice compared to the average volume of the tumours of the non-treated mice (T/C) (%),"[1]; cyclophosphamide 50 mg/kg/day alone, Day 50",36%
same,Average volume of the tumours of the treated mice compared to the average volume of the tumours of the non-treated mice (T/C) (%),"[1]; cyclophosphamide 50 mg/kg/day alone, Day 60",32%
same,Average volume of the tumours of the treated mice compared to the average volume of the tumours of the non-treated mice (T/C) (%),"[1]; cyclophosphamide 100 mg/kg/day alone, Day 15",47%
same,Average volume of the tumours of the treated mice compared to the average volume of the tumours of the non-treated mice (T/C) (%),"[1]; cyclophosphamide 100 mg/kg/day alone, Day 30",25%
same,Average volume of the tumours of the treated mice compared to the average volume of the tumours of the non-treated mice (T/C) (%),"[1]; cyclophosphamide 100 mg/kg/day alone, Day 40",18%
same,Average volume of the tumours of the treated mice compared to the average volume of the tumours of the non-treated mice (T/C) (%),"[1]; cyclophosphamide 100 mg/kg/day alone, Day 50",14%
same,Average volume of the tumours of the treated mice compared to the average volume of the tumours of the non-treated mice (T/C) (%),"[1]; cyclophosphamide 100 mg/kg/day alone, Day 60",15%
same,Average volume of the tumours of the treated mice compared to the average volume of the tumours of the non-treated mice (T/C) (%),"[1]; cyclophosphamide 150 mg/kg/day alone, Day 15",4%
same,tolerance of the dose,"[2]; cyclophosphamide 150 mg/kg/day alone, all died around the 15th day of treatment",did not tolerate
"CC[C@]1(O)C[C@@H]2CN(CCc3c([nH]c4ccccc34)[C@@](C(=O)OC)(c3cc4c(cc3OC)N(C)[C@H]3[C@@](O)(C(=O)OC)[C@H](OC(C)=O)[C@]5(CC)C=CCN6CC[C@]43[C@@H]65)C2)C1 [vinblastine, reference compound]",antineoplastic activity,"[1]; vinblastine between 0.125 and 0.5 mg/kg/day, sub-cutaneous administration, until the 40th day",dose-dependent
same,tolerance of the dose,"[2]; mouse, in vivo",not tolerated
dihydrated harmalacidine hydrochloride,IC50,[5],34.4 to 134 µM
